Measurements: patent publication US10112941B2, “Tricyclic compounds as anticancer agents” (BRISTOL-MYERS SQUIBB COMPANY, priority 2013, dated 2018)

Target: BRD4 (Homo sapiens, UniProt O60885)
Assay: Time Resolved Fluorescence Resonance Energy Transfer (TR-FRET) binding assay, BRD4
Details: one of the FRET assays described; read-out: FRET BRD4 IC50

Structure (SMILES) | IC50 [nM]
Cc1nnn(C)c1-c1cnc2c3c(C(=O)NC4CC4)cccc3n([C@H](c3ccccc3)C3CCOCC3)c2c1 [Example 151, N-Cyclopropyl-3-(dimethyl-1H-1,2,3-triazol-5-yl)-5-[(S)-oxan-4-yl(phenyl)methyl]-5H-pyrido[3,2-b]indole-9-carboxamide] | < 5
Cc1cccnc1C(C1CCOCC1)n1c2cc(C(C)(C)O)ccc2c2ncc(-c3c(C)nnn3C)cc21 (single isomer, unassigned) [Example 302] | < 5
COc1nnn(C)c1-c1cnc2c3ccc(S(C)(=O)=O)cc3n([C@H](c3ccccc3)C3CCOCC3)c2c1 [Example 391, 5-{7-Methanesulfonyl-5-[(S)-oxan-4-yl(phenyl)methyl]-5H-pyrido[3,2-b]indol-3-yl}-4-methoxy-1-methyl-1H-1,2,3-triazole] | < 5
COc1ccc(S(C)(=O)=O)c2c1c1ncc(-c3c(C)nnn3C)cc1n2[C@H](c1ccccc1F)C1CCOCC1 [Example 188, 5-{5-[(S)-(2-Fluorophenyl)(oxan-4-yl)methyl]-6-methanesulfonyl-9-methoxy-5H-pyrido[3,2-b]indol-3-yl}-1,4-dimethyl-1H-1,2,3-triazole] | < 5
[2H]C([2H])([2H])c1nnn(C)c1-c1cnc2c3ccc(C(C)(C)O)c(Cl)c3n([C@H](c3ccccc3)C3CCOCC3)c2c1 [Example 393, 2-{6-Chloro-3-[4-(^2H3)methyl-1-methyl-1H-1,2,3-triazol-5-yl]-5-[(S)-oxan-4-yl(phenyl)methyl]-5H-pyrido[3,2-b]indol-7-yl}propan-2-ol] | < 5
[2H]C([2H])([2H])c1nnn(C)c1-c1cnc2c3c(OCC(F)F)ccc(S(C)(=O)=O)c3n([C@H](c3ccccc3)C3CCOCC3)c2c1 [Example 229, 5-[9-(2,2-Difluoroethoxy)-6-methanesulfonyl-5-[(S)-oxan-4-yl(phenyl)methyl]-5H-pyrido[3,2-b]indol-3-yl]-4-(^2H3)methyl-1-methyl-1H-1,2,3-triazole] | < 5
[2H]C([2H])([2H])c1nnn(C)c1-c1cnc2c3ccc(C(C)(O)C4CC4)c(F)c3n([C@H](c3ccccc3F)C3CCOCC3)c2c1 (single isomer, unassigned) [Example 438] | < 5
Cc1nnn(C)c1-c1cnc2c3ccc(C(=O)N4CC(F)(F)C4)cc3n([C@H](c3ccccc3)C3CCOCC3)c2c1 [Example 414, 5-[7-(3,3-Difluoroazetidine-1-carbonyl)-5-[(S)-oxan-4-yl(phenyl)methyl]-5H-pyrido[3,2-b]indol-3-yl]-1,4-dimethyl-1H-1,2,3-triazole] | < 5
Cc1sc(=O)n(C)c1-c1cnc2c3ccc(C(C)(C)O)cc3n(C(c3ccccc3)C3CCOCC3)c2c1 (single isomer, unassigned) [Example 169, 4-[7-(2-Hydroxypropan-2-yl)-5-[oxan-4-yl(phenyl)methyl]-5H-pyrido[3,2-b]indol-3-yl]-3,5-dimethyl-2,3-dihydro-1,3-thiazol-2-one] | < 5
C=C(C)c1ccc2c3ncc(-c4c(C)nnn4C)cc3n([C@H](c3ccccc3)C3CCOCC3)c2c1CO [Example 356, [3-(Dimethyl-1H-1,2,3-triazol-5-yl)-5-[(S)-oxan-4-yl(phenyl)methyl]-7-(prop-1-en-2-yl)-5H-pyrido[3,2-b]indol-6-yl]methanol] | < 5
Cc1nnn(C)c1-c1cnc2c3ccc(C(C)(C)O)cc3n(C(CC3CC3)C3CCOCC3)c2c1 (single isomer, unassigned) [Example 394] | < 5
Cc1nnn(C)c1-c1cnc2c3ccc(C(C)(C)O)cc3n(C(c3c(F)cccc3F)C3CCOCC3)c2c1 (single isomer, unassigned) [Example 133, 2-{5-[(2,6-Difluorophenyl)(oxan-4-yl)methyl]-3-(dimethyl-1H-1,2,3-triazol-5-yl)-5H-pyrido[3,2-b]indol-7-yl}propan-2-ol] | < 5
Cc1noc(C)c1-c1cnc2c3ccc(C(C)(C)O)cc3n(C(c3ccccc3)C3(F)CCC3)c2c1 (single isomer, unassigned) [Example 33, 2-[3-(Dimethyl-1,2-oxazol-4-yl)-5-[(1-fluorocyclobutyl)(phenyl)methyl]-5H-pyrido[3,2-b]indol-7-yl]propan-2-ol] | < 5
Cc1n[nH]cc1-c1cnc2c3ccc(S(C)(=O)=O)cc3n([C@H](c3ccccc3)C3CCOCC3)c2c1 [Example 455, 4-{7-Methanesulfonyl-5-[(S)-oxan-4-yl(phenyl)methyl]-5H-pyrido[3,2-b]indol-3-yl}-3-methyl-1H-pyrazole] | < 25
Cc1noc(C)c1-c1cnc2c3ccc(C(C)(C)O)cc3n(C(c3ncccc3F)C3CCOCC3)c2c1 (single isomer, unassigned) [Example 345, 2-[3-(Dimethyl-1,2-oxazol-4-yl)-5-[(3-fluoropyridin-2-yl)(oxan-4-yl)methyl]-5H-pyrido[3,2-b]indol-7-yl]propan-2-ol] | < 5
[2H]C([2H])([2H])n1nnc(OC)c1-c1cnc2c3ccc(C(C)(C)O)cc3n([C@H](c3ccccc3)C3CCOCC3)c2c1 [Example 381, 2-{3-[4-Methoxy-1-(^2H3)methyl-1H-1,2,3-triazol-5-yl]-5-[(S)-oxan-4-yl(phenyl)methyl]-5H-pyrido[3,2-b]indol-7-yl}propan-2-ol] | < 5
COc1cc2c3ncc(-c4c(C)nnn4C)cc3n([C@H](c3ccccc3)C3CCOCC3)c2cc1C(C)(C)O [Example 354, 2-[3-(Dimethyl-1H-1,2,3-triazol-5-yl)-8-methoxy-5-[(S)-oxan-4-yl(phenyl)methyl]-5H-pyrido[3,2-b]indol-7-yl]propan-2-ol] | < 5
[2H]C([2H])([2H])c1nnn(C)c1-c1cnc2c3c(OC)cc(S(C)(=O)=O)cc3n([C@H](c3ccccc3)C3CCOCC3)c2c1 [Example 197, 5-{7-Methanesulfonyl-9-methoxy-5-[(S)-oxan-4-yl(phenyl)methyl]-5H-pyrido[3,2-b]indol-3-yl}-4-(^2H3)methyl-1-methyl-1H-1,2,3-triazole] | < 5

Structure (SMILES) | IC50 [nM]
Cc1nnn(C)c1-c1cnc2c3ccc(C(C)(C)O)cc3n([C@H](c3ccccn3)C3CCOCC3)c2c1 [Example 62] | < 25
Cc1nnn(C)c1-c1cnc2c3ccc([C@](C)(O)C4CC4)c(F)c3n([C@H](c3ccccc3)C3CCOCC3)c2c1 [Example 434, (1R)-1-cyclopropyl-1-{6-fluoro-3-[4-(^2H3)methyl-1-methyl-1H-1,2,3-triazol-5-yl]-5-[(S)-oxan-4-yl(phenyl)methyl]-5H-pyrido[3,2-b]indol-7-yl}ethan-1-ol] | < 5
Cc1nnn(C)c1-c1cnc2c3cc(F)c(C(C)(O)C4CC4)cc3n([C@H](c3ccccc3)C3CCOCC3)c2c1 (single isomer, unassigned) [Example 443] | < 5
Cc1noc(C)c1-c1cnc2c3ccc(C(C)(C)O)cc3n([C@H](CCC(F)(F)F)c3ccccc3)c2c1 [Example 10] | < 25
Cc1noc(C)c1-c1cnc2c3ccc(C(C)(C)O)cc3n(C(c3ncccc3F)C3CCOCC3)c2c1 (single isomer, unassigned) [Example 346, 2-[3-(Dimethyl-1,2-oxazol-4-yl)-5-[(3-fluoropyridin-2-yl)(oxan-4-yl)methyl]-5H-pyrido[3,2-b]indol-7-yl]propan-2-ol] | < 5
Cc1nnn(C)c1-c1cnc2c3ccc(C(C)(C)NC(=O)CN(C)C)cc3n(C(c3ccccc3)C3CCOCC3)c2c1 (single isomer, unassigned) [Example 167, N-{2-[3-(Dimethyl-1H-1,2,3-triazol-5-yl)-5-[oxan-4-yl(phenyl)methyl]-5H-pyrido[3,2-b]indol-7-yl]propan-2-yl}-2-(dimethylamino)acetamide] | < 5
[2H]C([2H])([2H])c1nnn(C)c1-c1cnc2c3cc(F)c(C(C)(C)O)cc3n(C(c3cc(OC)ccn3)C3CCOCC3)c2c1 (single isomer, unassigned) [Example 325] | < 5
Cc1ccnc([C@H](C2CCOCC2)n2c3cc(CS(C)(=O)=O)ccc3c3ncc(-c4c(C)nnn4C)cc32)c1 [Example 337] | < 5
Cc1noc(C)c1-c1cnc2c3ccc(C(C)(C)O)cc3n([C@@H](c3ccccn3)C3CCOCC3)c2c1 [Example 22] | < 5
Cc1nnn(C)c1-c1cnc2c3c(F)ccc(S(C)(=O)=O)c3n([C@H](c3ccccc3)C3CCOCC3)c2c1 [Example 181, 5-{9-Fluoro-6-methanesulfonyl-5-[(S)-oxan-4-yl(phenyl)methyl]-5H-pyrido[3,2-b]indol-3-yl}-1,4-dimethyl-1H-1,2,3-triazole] | < 5
Cc1nnn(C)c1-c1cnc2c3c(NS(=O)(=O)C4CC4)ccc(S(C)(=O)=O)c3n([C@H](c3ccccc3)C3CCOCC3)c2c1 [Example 218] | < 5
COc1ccc(C(C2CCOCC2)n2c3cc(C(C)(C)O)ccc3c3ncc(-c4c(C)nnn4C)cc32)c(F)c1F (single isomer, unassigned) [Example 122, 2-{5-[(2,3-Difluoro-4-methoxyphenyl)(oxan-4-yl)methyl]-3-(dimethyl-1H-1,2,3-triazol-5-yl)-5H-pyrido[3,2-b]indol-7-yl}propan-2-ol] | < 5
Cc1nnn(C)c1-c1cnc2c3cc(F)c(C(C)(O)C4CC4)cc3n([C@H](c3ccccc3)C3CCOCC3)c2c1 (single isomer, unassigned) [Example 444] | < 5
Cc1nnn(C)c1-c1cnc2c3ccc(C(C)(C)O)cc3n(C(c3ccccc3Cl)C3CCOCC3)c2c1 (single isomer, unassigned) [Example 403] | < 5
[2H]C([2H])([2H])c1nnn(C)c1-c1cnc2c3c(OC)cc(C(C)(C)O)cc3n(C(c3cc(C)on3)C3CCOCC3)c2c1 (single isomer, unassigned) [Example 312] | < 5
COC(=O)NC(C)(C)c1ccc2c3ncc(-c4c(C)nnn4C)cc3n([C@H](c3ccccc3)C3CCOCC3)c2c1 [Example 412, Methyl N-{2-[3-(dimethyl-1H-1,2,3-triazol-5-yl)-5-[(S)-oxan-4-yl(phenyl)methyl]-5H-pyrido[3,2-b]indol-7-yl]propan-2-yl}carbamate] | < 5
Cc1nnn(C)c1-c1cnc2c3cc(Cl)c(C(C)(C)O)cc3n([C@H](c3ccccc3)C3CCOCC3)c2c1 [Example 409, 2-[8-Chloro-3-(dimethyl-1H-1,2,3-triazol-5-yl)-5-[(S)-oxan-4-yl(phenyl)methyl]-5H-pyrido[3,2-b]indol-7-yl]propan-2-ol] | < 5
